{"source": "patent US6333340A", "about": "“Small molecule sulfonamides for vision and memory disorders” (Gpi Nil Holdings, Inc., priority 1998, dated 2001)", "key": {"optic nerve myelin": {"tested_on": "optic nerve myelin", "experiment": "Optic nerve transection, myelin basic protein immunohistochemistry of optic nerve stumps", "type": "in vivo, Sprague Dawley rats", "conditions": "for Proximal optic nerve myelin basic protein Density, % recovery: SEM", "text": "(§1) All eyes and optic nerves stumps were removed.\n^5 determined from 20X analysis of % areal coverage of optic nerve\n^6 shrinkage determined by comparing cross sectional area to sham\ncontrol, myelin, leves determined by multiplying cross sectional area by […]"}, "peripheral nerve": {"tested_on": "peripheral nerve", "experiment": "Peripheral nerve regeneration", "conditions": "in vivo"}, "[1]": {"tested_on": "streptozotocin-induced diabetic rat", "experiment": "Streptozotocin-induced diabetic sensory neuropathy, hot plate and tail flick tests", "type": "in vivo, Male Wistar rats", "conditions": "10 mg/kg s.c., 6 weeks", "method": "The procedure involved using Male Wistar rats which were given a single injection of streptozotocin (65 mg/kg i.v.). Blood glucose levels were determined weekly for the first three weeks and on the last week of the experiment. Animals were evaluated weekly for signs of sensory neuropathy using the conventional hot plate and tail flick apparatus test procedures."}, "[2]": {"tested_on": "optic nerve axons and myelin", "experiment": "Retinal ischemia, degeneration of optic nerve axons and myelin (toluidine blue)", "type": "in vivo, rat"}, "CNS": {"tested_on": "CNS", "experiment": "Sprouting within the CNS following partial deafferentation", "type": "in vivo"}, "FKBP12": {"molecular_target": "FKBP12 (Homo sapiens, UniProt P62942)", "sequence (P62942 whole entry)": "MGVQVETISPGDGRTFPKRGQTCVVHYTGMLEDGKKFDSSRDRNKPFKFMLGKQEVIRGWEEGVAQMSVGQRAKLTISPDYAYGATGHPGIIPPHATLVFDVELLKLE", "experiment": "Inhibition of peptidyl-prolyl isomerase (rotamase) activity of FKBP, chymotrypsin-coupled assay", "type": "biochemical", "conditions": "Table V; read-out: Ki rotomase", "text": "The inhibition of the prolyl peptidyl cis-trans isomerase activity of FKBP may be measured as an indicator of this affinity.\nInhibition of the peptidyl-prolyl isomerase (rotamase) activity of the compounds used in the inventive methods and pharmaceutical compositions can be evaluated by known methods described in the literature (Harding et al., Nature, 1989, 341:758-760; Holt et al. J. Am. Chem. Soc., 115:9923-9938). These values are obtained as apparent Ki 's and are presented for representative compounds in TABLE B.\nThe cis-trans isomerization of an alanine-proline bond in a model substrate, N-succinyl-Ala-Ala-Pro-Phe-p-nitroanilide, is monitored spectrophotometrically in a chymotrypsin-coupled assay, which releases para-nitroanilide from the trans form of the substrate. The inhibition of this reaction caused by the addition of different concentrations of inhibitor is determined, and the data is analyzed as a change in first-order rate constant as a function of inhibitor concentration to yield the apparent Ki values.\nIn a plastic cuvette are added […] of ice cold assay buffer (25 mM HEPES, pH 7.8, 100 mM NaCl), 10 mL of FKBP (2.5 mM in 10 mM Tris-Cl pH 7.5, 100 mM NaCl, 1 mM dithiothreitol), 25 mL of chymotrypsin (50 mg/ml in 1 mM HCl) and […] of test compound at various concentrations in dimethyl sulfoxide. The reaction is initiated by the addition of 5 mL of substrate (succinyl-Ala-Phe-Pro-Phe-para-nitroanilide, 5 mg/mL in 2.35 mM LiCl in trifluoroethanol).\nThe absorbance at 390 nm versus time is monitored for 90 seconds using a spectrophotometer and the rate constants are determined from the absorbance versus time data files."}, "retinal ganglion cells [3]": {"tested_on": "retinal ganglion cells", "experiment": "Optic nerve transection, retinal ganglion cell survival (Fluoro-gold counts)", "type": "in vivo, Sprague Dawley rats", "conditions": "for RGC Counts: mean density + SEM in 400 μm sample gridfields", "text": "as §1\n^1 Mean density + SEM of Fluoro-gold labeled retinal ganglion cells\n(RGC) in 400 μm […] sample gridfields."}, "[4]": {"experiment": "Clearance (comments of Table V)", "type": "in vitro ADME"}, "retinal ganglion cells [5]": {"tested_on": "retinal ganglion cells", "experiment": "Optic nerve transection, ganglion cell survival and axonal dying back (Example 16)", "type": "in vivo, Sprague Dawley rats", "conditions": "10 mg/kg/day s.c. for 28 days; 90 days after transection", "text": "Transection of the mammalian optic nerve results in a brief period of abortive regeneration, but the majority of axotomized neurons die and the axons from many persisting ganglion cells die back beyond the optic nerve head."}, "optic nerve axons": {"tested_on": "optic nerve axons", "experiment": "Optic nerve transection, optic nerve axon density (RT97 neurofilament immunohistochemistry)", "type": "in vivo, Sprague Dawley rats", "conditions": "for % surviving RGCs with ON axons / ON head area (% sham) / increased ON axon density / ON axon Count / ON Axon density: 90 days after ONT; for increased ON axon density: adjusted for optic nerve diameter; for ON axon Count: axonal density multiplied by ON area; for ON Axon density: mean + SEM in 200 μm × 200 μm region", "text": "as §1\n^2 mean density + SEM of RT97 neurofilament antibody labeled optic\nnerve (ON) axons in 200 μm × 200 μm region of interest\n^3 adjusted for optic nerve diameter\n^4 calculated by multiplying axonal density by ON area"}, "retinal ganglion cells [6]": {"tested_on": "retinal ganglion cells", "experiment": "Retinal ischemia, retinal ganglion cell degeneration", "type": "in vivo, adult rats", "conditions": "10 mg/kg, s.c. 1 hour prior to ischemia and 10 mg/kg/day next four days; 28 days", "text": "Retinal ganglion cells were retrogradely labeled in adult rats by bilateral injection of fluorogold in their lateral geniculate nuclei. Labeled ganglion cells in the normal rat retina appear as white profiles against the dark background (FIG. 1A). Complete retinal ischemia was produced by infusing normal saline solution into the retinal vitreous cavity of each eye until the intraocular pressure exceeded arterial blood pressure. 28 days after the ischemic episode extensive degeneration of retinal ganglion cell was evidenced by massive reduction in the density of fluorogold labeled cells (FIG. 1B)."}, "[7]": {"conditions": "14 days treatment, 90 days after ONT"}, "[8]": {"conditions": "28 days treatment, 90 days after ONT"}, "[9]": {"conditions": "distal stump, first 28 days after transection"}, "[10]": {"conditions": "proximal stump, first 28 days after transection"}, "[11]": {"conditions": "28 days after 1 hour retinal ischemic episode"}}, "note": "pKi: −log10 of the molar value. Several values for one entry are separate records, joined by “and”; a condition that tells them apart may be missing. Identical values can stand only once."}
{"compound": "CCC(C)(C)C(=O)C(=O)N1CCC[C@H]1C(=O)OCCCc1cccnc1", "note": "[GPI 1046]", "values": [{"measurement": "Distal optic nerve myelin basic protein Density, loss", "setting": "optic nerve myelin; [7]", "value": 47, "unit": "%"}, {"measurement": "Proximal optic nerve myelin basic protein Density, % recovery", "setting": "optic nerve myelin; [7]", "value": "1.6% and 1.6 ± 3.0%"}, {"measurement": "Distal optic nerve, shrinkage", "setting": "optic nerve myelin; 14 days treatment, 90 days after ONT, cross sectional area vs sham control", "value": 33, "unit": "%"}, {"measurement": "Distal optic nerve myelin preservation (myelin levels of normal)", "setting": "optic nerve myelin; [8]", "value": "~ 99% and 99%"}, {"measurement": "Distal optic nerve, less shrinkage", "setting": "optic nerve myelin; [8]", "value": 56, "unit": "%"}, {"measurement": "Proximal optic nerve myelin basic protein Density, % recovery", "setting": "optic nerve myelin; [8]", "value": "70% and 70 ± 6.3%"}, {"measurement": "density of degenerating myelin figures", "setting": "optic nerve myelin; distal stump, first 14 days after transection", "value": "remained high"}, {"measurement": "density of myelin", "setting": "optic nerve myelin; distal stump, first 14 days after transection, in words", "value": "slightly increase the density of myelin"}, {"measurement": "density of degenerating myelin figures", "setting": "optic nerve myelin; [9]", "value": "decreased the density of degenerating myelin figures"}, {"measurement": "fascicular pattern of myelin labeling", "setting": "optic nerve myelin; [9]", "value": "dramatic protection of the fascicular pattern of myelin labeling"}, {"measurement": "shrinkage of the distal stump", "setting": "optic nerve myelin; first 14 days after transection, in words", "value": "did not protect against shrinkage of the distal stump"}, {"measurement": "cross sectional shrinkage of the distal stump", "setting": "optic nerve myelin; first 28 days after transection, in words", "value": "prevented cross sectional shrinkage of the distal stump"}, {"measurement": "pattern of myelin degeneration", "setting": "optic nerve myelin; proximal stump, first 14 days after transection", "value": "did not alter the pattern of myelin degeneration"}, {"measurement": "density of degenerating myelin figures", "setting": "optic nerve myelin; [10]", "value": "decreased the density of degenerating myelin figures"}, {"measurement": "fascicular staining pattern for myelin basic protein", "setting": "optic nerve myelin; [10]", "value": "dramatic preservation of the fascicular staining pattern for myelin basic protein"}, {"measurement": "peripheral nerve regeneration", "setting": "peripheral nerve", "value": "enhance peripheral nerve regeneration"}, {"measurement": "behavioral sequelae of diabetic sensory neuropathy", "setting": "[1]", "value": "ameliorates the behavioral sequelae of diabetic sensory neuropathy"}, {"measurement": "latency, hot plate", "setting": "[1]", "value": "improvement in latency"}, {"measurement": "latency, tail flick", "setting": "[1]", "value": "improvement in latency"}, {"measurement": "density of degenerating myelin figures", "setting": "[2]; [11]", "value": "dramatically decreased the density of degenerating myelin figures"}, {"measurement": "protection of optic nerve axons from degeneration", "setting": "[2]; [11]", "value": "protected the majority of optic nerve axons from degeneration"}, {"measurement": "protection of optic nerve element from ischemic degeneration", "setting": "[2]; retinal ischemia", "value": "dramatic protection of optic nerve element from ischemic degeneration"}, {"measurement": "sprouting within the CNS", "setting": "CNS", "value": "stimulate sprouting within the CNS following partial deafferentation"}, {"measurement": "pKi", "setting": "FKBP12", "value": 8.12}, {"measurement": "% RGCs Rescued", "setting": "retinal ganglion cells [3]; [7]", "value": 5.3, "unit": "%"}, {"measurement": "Spared RGC population", "setting": "retinal ganglion cells [3]; [7]", "value": "20,275"}, {"measurement": "RGC Counts", "setting": "retinal ganglion cells [3]; [7]", "value": "49 ± 5.3"}, {"measurement": "density of retinal ganglion cells that survived", "setting": "retinal ganglion cells [3]; 14 days treatment, 90 days after transection, in words", "value": "small but not significant increase"}, {"measurement": "% RGCs Rescued (protection of the vulnerable ganglion cell population)", "setting": "retinal ganglion cells [3]; [8]", "value": 12.6, "unit": "%"}, {"measurement": "Spared RGC population", "setting": "retinal ganglion cells [3]; [8]", "value": "28,096"}, {"measurement": "RGC Counts", "setting": "retinal ganglion cells [3]; [8]", "value": "67.9 ± 5.8"}, {"measurement": "effect on retinal ganglion cells following Optic Nerve Transection", "setting": "retinal ganglion cells [3]; FIG. 10", "value": "neuroprotective effect"}, {"measurement": "protection of the vulnerable ganglion cell population, in words", "setting": "retinal ganglion cells [3]; first 28 days after transection", "value": "moderate but significant protection"}, {"measurement": "Clearance", "setting": "[4]", "value": 3.8, "unit": "µL/min"}, {"measurement": "perikaryal neuroprotection", "setting": "retinal ganglion cells [5]", "value": "moderate degree of perikaryal neuroprotection"}, {"measurement": "preservation of axons of protected neurons in the proximal stump", "setting": "retinal ganglion cells [5]", "value": "preserved the axons of virtually all protected neurons"}, {"measurement": "sparing of the ganglion cell population", "setting": "retinal ganglion cells [5]", "value": 25, "unit": "%"}, {"measurement": "% surviving RGCs with ON axons", "setting": "optic nerve axons; 14 days treatment", "value": 33.6, "unit": "%"}, {"measurement": "ON head area (% sham)", "setting": "optic nerve axons; 14 days treatment", "value": 76, "unit": "%"}, {"measurement": "increased ON axon density", "setting": "optic nerve axons; 14 days treatment", "value": 1.5, "unit": "X"}, {"measurement": "ON axon Count", "setting": "optic nerve axons; 14 days treatment", "value": 6820}, {"measurement": "ON Axon density", "setting": "optic nerve axons; 14 days treatment", "value": "569 ± 23"}, {"measurement": "density of large, medium and small caliber optic nerve axons", "setting": "optic nerve axons; 28 day treatment", "value": "significant increase in the density of large, and particularly medium and small caliber optic nerve axons"}, {"measurement": "% surviving RGCs with ON axons", "setting": "optic nerve axons; 28 days treatment", "value": 81.4, "unit": "%"}, {"measurement": "ON head area (% sham)", "setting": "optic nerve axons; 28 days treatment", "value": 95, "unit": "%"}, {"measurement": "increased ON axon density", "setting": "optic nerve axons; 28 days treatment", "value": 5.0, "unit": "X"}, {"measurement": "ON axon Count", "setting": "optic nerve axons; 28 days treatment", "value": "22,861"}, {"measurement": "ON Axon density", "setting": "optic nerve axons; 28 days treatment", "value": "1526 ± 120"}, {"measurement": "effect on optic nerve axons versus ganglion cell bodies", "setting": "optic nerve axons; FIG. 5", "value": "greater effect on optic nerve axons than ganglion cell bodies"}, {"measurement": "protection of optic nerve axons", "setting": "optic nerve axons; first 14 days after transection", "value": 5.3, "unit": "%"}, {"measurement": "preservation of optic nerve axons in the proximal stump", "setting": "optic nerve axons; following optic nerve transection, FIG. 12", "value": "preserves optic nerve axons in the proximal stump"}, {"measurement": "protection of the vulnerable ganglion cell population", "setting": "retinal ganglion cells [6]", "value": "noticeable protection of a large proportion of the vulnerable ganglion cell population"}]}
